The values below come from patent US20180179198A1, “TRICYCLIC MODULATORS OF TNF SIGNALING” (AbbVie Inc., priority 2015, published 2018).

This assay has as its target TNFα trimer (Homo sapiens, UniProt P01375). Put plainly: TNFα FP Competitive Binding Assay. As to conditions: fluorescence polarization competition; 20 nM TNFα trimer, 1 nM OregonGreen488 probe; read-out: TNF IC50 (TNFα FP binding assay IC50). Here is the method:
TNFα FP Competitive Binding Assay
• 1. Assay Buffer: Prepare 1× Assay Buffer (Water with 47 mM HEPES, 47 mM NaCl, 0.9 mM EDTA, 0.0071% Triton X-100) by adding 25 mL of 1 M HEPES, 5 mL of 5 M NaCl, 1 mL of 0.5 M EDTA, and 375 μL of a 10% Triton X-100 stock to a fresh 500 mL bottle of water. • 2. Assay Mixture: Prepare fresh Assay Mixture containing 20 nM TNFα trimer (60 nM protein) and 1 nM 2′,7′-difluoro-3′,6′-dihydroxy-N-(2-(2-(2-((4-(isoquinolin-8-yl)-3-(4-(isoquinolin-8-yl)phenethoxy)benzyl)oxy)ethoxy)ethoxy)ethyl)-3-oxo-3H-spiro[isobenzofuran-1,9′-xanthene]-5-carboxamide probe in 1× Assay Buffer.
Compound Plate Preparation
Manual 12-point 1:3 Dilution Plates: (384 well polypropylene plates)
Top concentration of compounds, 10 mM in DMSO, dispensed in rows A-O in columns 1 and 13. Compounds are serially diluted 1:3 with DMSO in columns 2-12 or 14-24 using a 16-channel Matrix pipettor. Plates stored at −20° C.
Discovery Preps 12-point 1:3 Dilution Plates: (384 well assay plates)
Top concentration, 5 mM in DMSO, of compounds placed in rows A-O in columns 1 and 13. Compounds are serially diluted 1:3 with DMSO in columns 2-12 or 14-24. Compound solutions are dispensed into replicate assay plates at 410 nL per well. Plates stored at 4° C.
TNFα FP Competitive Binding Assay Protocol
• 1. Compound plates are warmed to rt. • 2. Fresh Assay Mixture is prepared. • 3. Assay Mixture (20 μL) is dispensed each well of 384 assay plates using a Thermo Multidrop Combi or 16-channel Matrix pipettor. If Manual 12-point 1:3 Dilution Plates are to be tested, Assay Mix is dispensed into empty plates. Discovery Preps 12-point 1:3 Dilution Plates already contain 410 nL compound solution in DMSO. • 4. For Manual 12-point 1:3 Dilution Plates, 0.7 μL is manually transferred using a 16-channel Matrix pipettor to replicate assay plates containing 20 μL Assay Mixture for a final top compound concentration of 338 μM (3.4% DMSO). • 5. For Discovery Preps 12-point 1:3 Dilution Plates, 20 μL Assay Mixture added the 410 nL compound solution already in the plates yields a final top compound concentration of 100 μM (2.0% DMSO). • 6. Background subtraction controls are wells P1-P8 containing only Assay Buffer. The low % inhibition controls are wells P9-P16 containing only Assay Mix. The high % inhibition are wells P17-P24 containing only 1 nM 2′,7′-difluoro-3′,6′-dihydroxy-N-(2-(2-(2-((4-(isoquinolin-8-yl)-3-(4-(isoquinolin-8-yl)phenethoxy)benzyl)oxy)ethoxy)ethoxy)ethyl)-3-oxo-3H-spiro[isobenzofuran-1,9′-xanthene]-5-carboxamide probe in 1× Assay Buffer. • 7. Plates are incubated at […] for 18-24 h in 37° C. incubator (CO2 is off). • 8. Prior to reading the assay, the plates are placed in a dark cabinet to equilibrate at rt for one hour. • 9. Background-subtracted fluorescence polarization (mP) is measured using a PerkinElmer Envision plate reader. • 10. Raw data is entered into Assay Explorer and dose-response curves are generated using a variable slope curve.
Background: Polarisation of emitted light reports the rotation of a fluorescent probe.

TNFα trimer, sequence (P01375 77-233 limits assumed): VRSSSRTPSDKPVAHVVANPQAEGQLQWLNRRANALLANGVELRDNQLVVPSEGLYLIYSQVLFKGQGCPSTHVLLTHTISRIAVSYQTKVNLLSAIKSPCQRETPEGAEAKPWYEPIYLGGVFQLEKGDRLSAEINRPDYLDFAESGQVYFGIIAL

The term IC50 denotes the concentration that inhibits the measured activity by half. As for “1-((R)-4-(5-((R)-8-(3-(Hydroxymethyl)phenyl)-7,8-dihydro-6H-pyrrolo[2′,1′:2,3]imidazo[4,5-b]pyridin-2-yl)pyrimidin-2-yl)-2-methylpiperazin-1-yl)ethanone [Example 45]”, the IC50 fell in the range of 1000 to 10000 nM. Turning to `c1ccc(C2COCc3nc4ccc(-c5cnc(N6CCOCC6)nc5)cc4n32)cc1` (single isomer, unassigned) [Example 21], the IC50 is below 1000 nM.

On to `O=C1NCC2CN(c3ncc(-c4ccc5nc6n(c5n4)[C@@H](c4ccccc4)CC6)cn3)CCN12` (single isomer, unassigned) [Example 30], for which the IC50 is below 1000 nM. For the compound `O=C1NCC2CN(c3ncc(-c4ccc5nc6n(c5n4)C(c4ccccc4)COC6)cn3)CCN12` (stereo in doubt) [Example 58, (8aS)-7-(5-(9-Phenyl-8,9-dihydro-6H-pyrido[3′,2′:4,5]imidazo[2,1-c][1,4]oxazin-2-yl)pyrimidin-2-yl)hexahydroimidazo[1,5-a]pyrazin-3(2H)-one], the IC50 is below 1000 nM. Then `C[C@]1(c2ccccc2)CCc2nc3ccc(-c4cnc(N5CCC(O)CC5)nc4)nc3n21` [(R)-1-(5-(8-methyl-8-phenyl-7,8-dihydro-6H-pyrrolo[2′,1′:2,3]imidazo[4,5-b]pyridin-2-yl)pyrimidin-2-yl)piperidin-4-ol], with below 1000 nM; and `CC(C)(O)c1ncc(-c2ccc3nc4n(c3n2)[C@@](C)(c2ccccc2)CC4)cn1` [(R)-2-(5-(8-methyl-8-phenyl-7,8-dihydro-6H-pyrrolo[2′,1′:2,3]imidazo[4,5-b]pyridin-2-yl)pyrimidin-2-yl)propan-2-ol], with below 1000 nM. As for `C[C@@]1(c2ccccc2)CCc2nc3ccc(-c4cnc(N5CCC(O)CC5)nc4)nc3n21` [(S)-1-(5-(8-methyl-8-phenyl-7,8-dihydro-6H-pyrrolo[2′,1′:2,3]imidazo[4,5-b]pyridin-2-yl)pyrimidin-2-yl)piperidin-4-ol], the IC50 fell in the range of 10000 to 100000 nM. Then `CC(C)(O)c1ncc(-c2ccc3nc4n(c3n2)[C@](C)(c2ccccc2)CC4)cn1` [(S)-2-(5-(8-methyl-8-phenyl-7,8-dihydro-6H-pyrrolo[2′,1′:2,3]imidazo[4,5-b]pyridin-2-yl)pyrimidin-2-yl)propan-2-ol], with 10000 to 100000 nM; and `CNS(=O)(=O)c1ccc(-c2ccc3nc4n(c3c2)C(c2ccccc2)CC4)cc1` (centres unmarked) [A.1], with below 1000 nM. As for `CCS(=O)(=O)c1ccc(-c2ccc3nc4n(c3c2)C(c2ccccc2)CC4)cc1` (centres unmarked) [A.2], the IC50 was below 1000 nM. With `O=S(=O)(c1ccc(-c2ccc3nc4n(c3c2)C(c2ccccc2)CC4)cc1)N1CCOCC1` (centres unmarked) [A.3], the IC50 is below 1000 nM. On to `CS(=O)(=O)NCc1ccc(-c2ccc3nc4n(c3c2)C(c2ccccc2)CC4)cc1` (centres unmarked) [A.4], for which the IC50 is below 1000 nM.

On to `CS(=O)(=O)c1ccc(-c2ccc3nc4n(c3c2)C(c2ccccc2)CC4)cc1` (centres unmarked) [A.5], for which the IC50 was below 1000 nM.

Consider `NS(=O)(=O)c1ccc(-c2ccc3nc4n(c3c2)C(c2ccccc2)CC4)cc1` (centres unmarked) [A.6], for which the IC50 was below 1000 nM. Then `N#CCc1ccc(-c2ccc3nc4n(c3c2)C(c2ccccc2)CC4)cc1` (centres unmarked) [A.7], with below 1000 nM; and `c1ccc(C2CCc3nc4ccc(-c5cnc(C6CC6)nc5)cc4n32)cc1` (centres unmarked) [A.8], with below 1000 nM; and `CCS(=O)(=O)c1ccc(-c2ccc3nc4n(c3c2)C(c2ccccc2)CC4)cn1` (centres unmarked) [A.9], with below 1000 nM. In the case of `CN(C)C(=O)c1ccc(-c2ccc3nc4n(c3c2)C(c2ccccc2)CC4)cc1` (centres unmarked) [A.10], the IC50 is below 1000 nM. `CCN(C)C(=O)c1ccc(-c2ccc3nc4n(c3c2)C(c2ccccc2)CC4)cc1` (centres unmarked) [A.11]: the IC50 is below 1000 nM. In the case of `CN(C)c1ccc(-c2ccc3nc4n(c3c2)C(c2ccccc2)CC4)cn1` (centres unmarked) [A.12], the IC50 is 1000 to 10000 nM. `Cc1cc(-c2ccc3nc4n(c3c2)C(c2ccccc2)CC4)ccn1` (centres unmarked) [A.13]: the IC50 fell in the range of 1000 to 10000 nM. Consider `Cc1ccc(-c2ccc3nc4n(c3c2)C(c2ccccc2)CC4)cn1` (centres unmarked) [A.14], for which the IC50 is 1000 to 10000 nM. Turning to `CCOc1cncc(-c2ccc3nc4n(c3c2)C(c2ccccc2)CC4)c1` (centres unmarked) [A.15], the IC50 was in the range of 1000 to 10000 nM.
